Data from patent publication US20030236306A1, “Stabilized formulations of alpha adrenergic receptor antagonists and the uses thereof” (priority 2002, published 2003).
“Also recorded” adds a separate entry of the source. Where a name gives a salt, the structure may show the parent alone.

Experiments:
[1] = system: local anesthetic containing an alpha adrenergic receptor agonist; conditions: solution of 0.05 mg/ml; cited from earlier work
[2] = Wide-range pH-stability profiling at 40° C.; format: physicochemical; conditions: 0.1 mg/ml, pH 2-8, 50 mM phosphate or acetate, FIG. 1
Method: (§1) The drug is monitored at a detection wavelength of 232 nm.
All samples were stored in the dark.
The phosphate buffers were prepared by adding phosphoric acid (3.40 ml) to de-ionized (DI) water, adjusting the pH with 2 N NaOH, and bringing the volume to 1 L in a volumetric flask. The acetate buffers were prepared by adding acetic acid (2.95 ml) to water, adjusting the pH value with 2 N NaOH, and bringing the volume to 1 L in a volumetric flask.
Measurements were performed for pH after samples had been analyzed by HPLC.
In all stability studies, glass serum vials with rubber closures and flip-top seals were used for storage of the samples to minimize fluid loss. The weights of samples were measured at the beginning of the experiment, prior to sampling for analysis, and after resealing the vials to monitor for any weight loss due to heating. No significant weight loss was observed.
At each pH, the concentration was divided by the corresponding initial concentration (day 0) to obtain the percent recovery. The percent recovery was plotted against time for calculation of first-order rate kinetics. The slope of each pH line was calculated as the rate constant and plotted against pH to obtain a wide-range pH-stability profile.

[3] = systemic doses, usually with marked hypotensive episodes; cited from earlier work
[4] = Effect of additives on stability, pH 3.5, 60° C.; format: physicochemical; conditions: 10 mM Sodium Acetate
Method: as §1
The pH value of the solutions was readjusted to pH 3.5, as required.
All samples were placed in 10 ml glass serum vials, stoppered with rubber closures with an inert coating (Daikyo Flurotec by WEST Pharmaceutical), and sealed with flip-top caps after sampling. Vials were placed at 60° C. after the weights were recorded.
Sampling occurred at the initial time point and on days 2, 7, and 14.
Vials were weighed, sampled, sealed, re-weighed, and replaced under the selected storage condition until testing at the subsequent time point.

[5] = Effect of sodium acetate buffer concentration on stability, pH 3.5, 60° C.; format: physicochemical
Method: as §1
Tightly sealed glass vials containing the test solutions were placed in an oven at 40° C. or 60° C. All samples were stored in the dark. Aliquots were removed at designated time points for HPLC analysis and pH measurement.
In conjunction with HPLC analysis, pH was measured. The measurement was performed using the same samples as used for the HPLC analysis. The pH meter was calibrated using pH 4.00 and 7.00 buffer standards prior to each measurement.
Samples were incubated at 60° C. with scheduled testing performed at day 0, 2, 7, and 14. The various buffer concentrations were prepared by diluting the 50 mM buffer with water and re-examining the pH value to determine if the pH 3.5 was constant. Measurements of pH were performed after HPLC analysis of the samples.

[6] = system: local anesthesia by 2% polocaine (mepivacaine hydrochloride) with levonordefrin; assay: Reversal of local anesthesia by LARA versus saline vehicle, bilateral injection in human subjects; format: in vivo; conditions: three subjects, 0.05 mg/ml phentolamine mesylate (0.08 mg)
Method: An injection of the physiological saline vehicle (without phentolamine mesylate) served as the control. […] This was followed by injection of the phentolamine mesylate containing local anesthetic reversal agent (LARA) into one side of the oral cavity, and injection of the saline vehicle (control) solution into the opposite side of the oral cavity. The time to reversal of the local anesthetic effect on both sides was then recorded to determine whether there is a difference between the two sides.
The local anesthetic used was 2% polocaine (mepivacaine hydrochloride) with levonordefrin (1:20,000=0.05 mg/ml) (levonordefrin injection, USP) (Astra USA, Inc., Westborough, Mass. 01581). Levonordefrin is a sympathomimetic amine with a pharmacological profile similar to that of epinephrine, but with a lower potency.
Three healthy, male human subjects, age 34-50, volunteered to have local anesthetic injected in the mouth bilaterally under the lip in an easily repeatable location. The exact time of each injection was recorded. The position chosen was above (apical) the prominence of the root of the upper cuspid teeth. This is a common site selected to numb the cuspids, lateral incisors and upper lip. The volume of the local anesthetic injected was 1.7+0.1 ml on each side of the mouth. […]

Phentolamine Concentration ([4]; EDTA, 0.7 mg/ml, Day 0): 106 µg/mL | Phentolamine Concentration ([4]; EDTA, 0.7 mg/ml, Day 2): 103 µg/mL | pH ([5]; Sodium Acetate 0 mM (un-buffered), Day 0): 3.6 | pH ([5]; Sodium Acetate 0 mM (un-buffered), Day 2): 4.4 | pH ([5]; Sodium Acetate 0 mM (un-buffered), Day 7): 5.1 | pH ([5]; Sodium Acetate 0 mM (un-buffered), Day 14): 5.3 | pH ([5]; Sodium Acetate 5 mM, Day 0): 3.5 | pH ([5]; Sodium Acetate 5 mM, Day 2): 3.8 | pH ([5]; Sodium Acetate 5 mM, Day 7): 3.8 | pH ([5]; Sodium Acetate 5 mM, Day 14): 3.8 | pH ([5]; Sodium Acetate 10 mM, Day 0): 3.5 | pH ([5]; Sodium Acetate 10 mM, Day 2): 3.7 | pH ([5]; Sodium Acetate 10 mM, Day 7): 3.8 | pH ([5]; Sodium Acetate 10 mM, Day 14): 3.7 | pH ([5]; Sodium Acetate 50 mM, Day 0): 3.5 | pH ([5]; Sodium Acetate 50 mM, Day 2): 3.6 | pH ([5]; Sodium Acetate 50 mM, Day 7): 3.6 | pH ([5]; Sodium Acetate 50 mM, Day 14): 3.6
Structure (SMILES): Cc1ccc(N(CC2=NCCN2)c2cccc(O)c2)cc1 [Phentolamine Mesylate, phentolamine mesylate]
reversal of local anesthetic effect [1]: can rapidly reverse the effect of a local anesthetic | wide-range pH-stability profile (rate of degradation) [2]: significant increase in rate of degradation was observed at pH above 7; also recorded: samples prepared in acetate buffers appeared to be more stable than their counterparts in the phosphate buffers | side effects reported in package insert [3]: Myocardial infarction, cerebrovascular spasm, and cerebrovascular occlusion have been reported | Rate Constant (zero-order) ([4]; EDTA, 0.7 mg/ml): 0.438 µg/mL/day | Rate Constant (zero-order) ([4]; Glycerol, 25% w/v): 0.726 µg/mL/day | Rate Constant (zero-order) ([4]; NaCl, 50 mg/ml): 1.663 µg/mL/day | Rate Constant (zero-order) ([4]; Niacinamide, 50 mg/ml): -0.026 µg/mL/day | Rate Constant (zero-order) ([4]; No additive): 1.027 µg/mL/day | Rate Constant (zero-order) ([4]; Propylene glycol, 25% w/v): 1.019 µg/mL/day | Rate Constant (zero-order) ([4]; Sodium metabisulfite, 0.5 mg/ml): 1.903 µg/mL/day | Rate Constant (zero-order) ([4]; d-Mannitol, 40 mg/ml): 0.416 µg/mL/day | Rate Constant (zero-order) ([4]; α-Cyclodextran, 50 mg/ml): 0.501 µg/mL/day | side-effects [6]: no side-effects of any kind
